According to patent US20040142979A1, “Heteroarylsulfonylmethyl hydroxamic acids and amides and their use as protease inhibitors” (priority 2002, published 2004):

What was measured:
[1] = biological target: T1, Human recombinant MMP-9 (Homo sapiens, UniProt P14780); experiment: In vitro MMP inhibition analysis (fluorogenic peptide substrate), MMP-9; type: biochemical; conditions: human recombinant enzyme; 4 μM substrate (A); apparent Ki without substrate correction
T1 construct: made in house; host or cells: MMP-9-transfected HT1080 cells (spent media)
Procedure: (§1) Several compounds and salts were analyzed in an in vitro assay to determine their ability to inhibit the MMP cleavage of peptide substrates. Inhibition constant (Ki) were calculated from the assayed compound-MMP interactions.
(§2) Human recombinant MMP-1, MMP-2, MMP-9, MMP-13, and MMP-14 were used in this assay. All enzymes were prepared in Assignee's laboratories following usual laboratory procedures. Protocols for the preparation and use of these enzymes are available in the scientific literature. See, e.g., Enzyme Nomenclature (Academic Press, San Diego, Calif., 1992) (and the citations therein). See also, Freije et al., J. Biol. Chem., 269(24), 16766-16773 (1994).
The MMP-9 proenzyme was purified by gelatin Sepharose chromatography from spent media of MMP-9-transfected HT1080 cells provided by Dr. Howard Welgus of Washington University (St. Louis, Mo.).
(§3) All MMPs were activated using 4-aminophenylmercuric acetate (“APMA”, Sigma Chemical, St. Louis, Mo.) or trypsin. MMP-9 also was activated using human recombinant MMP-3 (purified in Assignee's laboratory following standard cloning and purification techniques).
(§4) The following fluorogenic, methoxycoumarin-containing polypeptide substrate (A) was used in the MMP inhibition assays:
(§5) MCA-ArgProLeuGlyLeuDpaAlaArgGluArgNH2 (A)
(§6) “MCA” is 7-methoxycoumarin-4-yl acetyl. Substrate (A) was prepared Assignee's laboratory. In the absence of MMP inhibitory activity, the substrate is cleaved at the Gly-Leu peptide bond. This cleavage separates the highly fluorogenic peptide from the 2,4-dinitrophenyl quencher, thus resulting in increase of fluorescent intensity.
(§7) The stock solutions of the assayed compounds and salts were prepared in 1% dimethyl sulfoxide (DMSO). These stock solutions were diluted in Buffer A (100 mM Tris-HCl, 100 mM NaCl, 10 mM CaCl2, 0.05% polyoxyethylene 23 lauryl ether, pH 7.5) to obtain solutions with different compound concentrations, i.e., assay solutions with different concentrations of the assayed MMP inhibitory compound. The experiment controls contained the same amount of Buffer A/DMSO as the assayed sample, but contained none of the tested compound or salt.
(§8) The assays from which the Ki determinations were made were performed as follows. The assayed compound samples were incubated in separate wells of untreated white polystyrene plates (Nunc Nalgene International, Rochester, N.Y.), and analyzed on a Tecan SpectraFlour Plus plate reader. The excitation wavelength was 330 nm, and the emission wavelength -420 nm. All samples (assayed compounds and controls) were incubated in separate plate wells at room temperature for 1 hr in the presence of 4 μM of MMP substrate (A). In the absence of MMP inhibitory activity, substrate (A) was cleaved at the Gly-Leu bond resulting in an increase of relative fluorescence. Inhibition was observed as a reduced rate of this increase in relative fluorescence. […] This protocol is a modification of method by Knight et al., FEBS Lett., 296(3), 263-266 (1992). Apparent inhibitory constants were determined by non-linear regression of reaction velocity as a function of inhibitor and enzyme concentration using Morrison's equation, as described by Kuzmic, P., et al., Anal. Biochem., 286(1):45-50 (2000). Modifications were made in the non-linear regression method to allow a common control reaction rate and effective enzyme concentration to be shared between all dose-response relationships on a given assay plate. Since the substrate concentration was chosen to be at or below the Km, the apparent Ki's from this analysis were reported as Ki's without correction for the influence of substrate.
(§9) The above protocols were used to determine MMP inhibition Ki constants for the compounds in Examples 1, 2, and 4-42 above. All Ki values in Table 3 are given in nM units.

[2] = biological target: T2, Human recombinant MMP-14 (Homo sapiens, UniProt P50281); experiment: In vitro MMP inhibition analysis (fluorogenic peptide substrate), MMP-14; type: biochemical; conditions: human recombinant catalytic domain; 4 μM substrate (A); apparent Ki without substrate correction
T2 construct: The catalytic domain enzyme was expressed in E. Coli inclusion bodies; made in house
Procedure: as §1, §2
The MMP-14 full length cDNA was provided by Dr. Gregory Goldberg of Washington University (St. Louis, Mo.). The catalytic domain enzyme was expressed in E. Coli inclusion bodies, solubilized in urea, purified on a preparative […] reverse phase HPLC column, and then refolded in the presence of zinc acetate and purified for use.
as §3, §4, §5, §6, §7, §8, §9

[3] = biological target: T3, Human recombinant MMP-1 (Homo sapiens, UniProt P03956); experiment: In vitro MMP inhibition analysis (fluorogenic peptide substrate), MMP-1; type: biochemical; conditions: human recombinant enzyme; 4 μM substrate (A); apparent Ki without substrate correction
T3 construct: made in house; host or cells: MMP-1-transfected HT-1080 cells (spent media)
T3 sequence (P03956 100-469): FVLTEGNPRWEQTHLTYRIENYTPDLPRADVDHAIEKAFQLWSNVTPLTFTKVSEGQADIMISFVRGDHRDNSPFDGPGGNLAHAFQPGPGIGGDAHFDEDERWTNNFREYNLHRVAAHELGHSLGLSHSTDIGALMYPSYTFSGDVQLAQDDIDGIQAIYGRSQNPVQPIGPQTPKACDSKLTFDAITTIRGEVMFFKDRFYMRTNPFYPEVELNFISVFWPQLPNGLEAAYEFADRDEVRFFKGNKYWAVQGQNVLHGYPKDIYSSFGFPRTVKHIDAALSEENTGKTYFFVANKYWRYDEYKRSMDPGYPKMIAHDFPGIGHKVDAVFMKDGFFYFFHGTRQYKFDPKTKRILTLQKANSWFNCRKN
Procedure: as §1, §2
The MMP-1 proenzyme was purified from the spent media of MMP-1-transfected HT-1080 cells provided by Dr. Harold Welgus of Washington University (St. Louis, Mo.). The protein was purified on a zinc chelating column.
as §3, §4, §5, §6, §7, §8, §9

[4] = biological target: T4, Human recombinant MMP-2 (Homo sapiens, UniProt P08253); experiment: In vitro MMP inhibition analysis (fluorogenic peptide substrate), MMP-2; type: biochemical; conditions: human recombinant enzyme; 4 μM substrate (A); apparent Ki without substrate correction
T4 construct: made in house; host or cells: MMP-2-transfected p2AHT2 cells
T4 sequence (P08253 110-660): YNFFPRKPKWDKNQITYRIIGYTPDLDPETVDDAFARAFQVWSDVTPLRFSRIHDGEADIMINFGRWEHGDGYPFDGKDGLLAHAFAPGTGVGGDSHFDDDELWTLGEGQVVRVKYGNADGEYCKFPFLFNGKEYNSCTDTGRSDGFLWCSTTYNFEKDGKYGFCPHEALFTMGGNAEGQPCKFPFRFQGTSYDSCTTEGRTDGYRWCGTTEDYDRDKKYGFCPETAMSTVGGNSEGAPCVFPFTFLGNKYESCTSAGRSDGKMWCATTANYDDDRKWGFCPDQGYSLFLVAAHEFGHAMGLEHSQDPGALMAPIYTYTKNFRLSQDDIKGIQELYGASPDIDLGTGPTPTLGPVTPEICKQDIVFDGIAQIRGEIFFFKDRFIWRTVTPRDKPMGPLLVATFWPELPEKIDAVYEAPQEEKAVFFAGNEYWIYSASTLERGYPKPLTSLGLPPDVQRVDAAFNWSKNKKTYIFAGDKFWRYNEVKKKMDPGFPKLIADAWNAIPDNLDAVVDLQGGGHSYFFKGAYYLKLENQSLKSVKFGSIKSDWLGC
Procedure: as §1, §2
The MMP-2 proenzyme was purified by gelatin Sepharose chromatography from MMP-2- transfected p2AHT2 cells provided by Dr. Gregory Goldberg of Washington University (St. Louis, Mo.).
as §3, §4, §5, §6, §7, §8, §9

[5] = tested on: advanced, rapidly progressive, treatment-refractory solid tumor cancers (colorectal, pancreatic, ovarian, and prostate); conditions: cited from earlier work

T1 sequence (P14780 107-707 limits assumed): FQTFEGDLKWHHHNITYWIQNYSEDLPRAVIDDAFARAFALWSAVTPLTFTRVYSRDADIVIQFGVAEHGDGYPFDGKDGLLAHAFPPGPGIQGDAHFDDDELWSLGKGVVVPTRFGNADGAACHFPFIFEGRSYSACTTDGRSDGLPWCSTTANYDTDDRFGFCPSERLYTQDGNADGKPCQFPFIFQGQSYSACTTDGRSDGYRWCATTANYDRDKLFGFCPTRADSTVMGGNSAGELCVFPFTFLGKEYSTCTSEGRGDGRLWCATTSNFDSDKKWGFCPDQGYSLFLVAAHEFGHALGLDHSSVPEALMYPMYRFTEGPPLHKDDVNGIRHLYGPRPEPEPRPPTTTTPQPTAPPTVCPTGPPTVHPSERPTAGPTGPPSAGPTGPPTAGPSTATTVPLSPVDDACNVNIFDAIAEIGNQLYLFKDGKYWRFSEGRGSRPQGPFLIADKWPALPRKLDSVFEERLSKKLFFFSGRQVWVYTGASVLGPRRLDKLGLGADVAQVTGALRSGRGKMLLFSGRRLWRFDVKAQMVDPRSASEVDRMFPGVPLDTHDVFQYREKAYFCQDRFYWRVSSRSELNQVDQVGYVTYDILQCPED

| Ki [1] [µM] | Ki [2] [µM] | Ki [3] [µM] | Ki [4] [µM] | Structure (SMILES) | effect on cancer-specific antigens used as surrogate markers for biological activity ([5]; Phase I/II studies, patients with advanced solid tumor cancers) | most common drug-related toxicity ([5]; clinical trials, patients) |
| --- | --- | --- | --- | --- | --- | --- |
| > 10 | > 10 | > 10 | 4.97 | O=C(c1ccc(-c2ccc(S(=O)(=O)C3(C(=O)NO)CCOCC3)cn2)cc1)N1CCCCC1 [Example 77] |  |  |
| > 10 | > 10 | > 10 | 1.76 | O=C(c1ccc(-c2ccc(S(=O)(=O)C3(C(=O)NO)CCOCC3)cn2)cc1)N1CCOCC1 [Example 80] |  |  |
|  |  |  |  | CNC(=O)[C@@H](NC(=O)[C@H](CC(C)C)[C@H](O)C(=O)NO)C(C)(C)C [Marimastat] | dose-related reduction in the rise of cancer-specific antigens | musculoskeletal pain and stiffness |
